Experimental data from patent US20110033946A1, “DETECTION OF SHORT-CHAIN FATTY ACIDS IN BIOLOGICAL SAMPLES” (HEMAQUEST PHARMACEUTICALS, INC., priority 2009, published 2011).
Several values for one entry are separate records, joined by “and”; a condition that tells them apart may be missing. Identical values can stand only once. Like-named read-outs stand apart in the source and are kept apart here.

Tests used:
[1] = Freeze/thaw cycle stability in dog plasma; assay type: physicochemical; conditions: three freeze/thaw cycles at approximately −70° C.
Protocol: (§1) For the remaining validation tests, a calibration curve and triplicates QCs at the low, mid and high levels were analyzed with each sample set. The following samples were also analyzed either in conjunction with one of the precision and accuracy runs or in one of the additional validation runs: Samples from six lots of control dog plasma for specificity. Two concentration levels of unextracted QC-samples in triplicate (solvent standards) were analyzed for the evaluation of the recovery of sodium 2,2-dimethylbutyrate and DMV in dog plasma. Two levels of QC samples (Low QC and High QC in triplicate) were subjected to three freeze/thaw cycles at approximately −70° C. prior to extraction to evaluate freeze/thaw stability. Two levels of QC samples (Low QC and High QC in triplicate) were placed on the bench top for approximately 17 hours prior to extraction for the evaluation of the bench top stability. Triplicate low QC samples and triplicate high QC samples were stored for one month and three months in a freezer at approximately −70° C., and then extracted and analyzed to evaluate long term stability in dog plasma. Three aliquots of a dilution QC sample diluted 10-fold.
The stability of sodium 2,2-dimethylbutyrate in dog plasma was evaluated at approximately −70° C. for three cycles using QC-Low and QC-High samples in triplicate. The freeze time was at least 12 hours, with a minimum thaw time of one hour. The CV % values for the QC-Low and QC-High stability samples are 1.4% and 2.8%, respectively. To calculate the RE %, the measured mean concentration was compared to the nominal concentration. The RE % values for the QC-Low and QC-High stability samples are 1.9% and −8.1%, respectively.

[2] = assay type: physicochemical, human; conditions: for Extract freezer stability, Mean concentration / Extract freezer stability, RE % (mean vs nominal): human, 8 h
Protocol: The following samples were also analyzed either in conjunction with one of the precision and accuracy runs or in one of the additional validation runs. Samples from six lots of control human plasma for specificity. Samples from six lots of control human plasma fortified with internal standard for specificity. Two concentration levels of unextracted QC-samples in triplicate (solvent standards) were analyzed for the evaluation of the recovery of sodium 2,2-dimethylbutyrate and DMV in human plasma. Two levels of QC samples (Low QC and High QC in triplicate) were subjected to three freeze/thaw cycles at approximately −70° C. prior to extraction to evaluate freeze/thaw stability. Two levels of QC samples (Low QC and High QC in triplicate) were placed on the bench top for approximately 17 hours prior to extraction for the evaluation of the bench top stability. Triplicate low QC samples and triplicate high QC samples were stored for one month and three months in a freezer at approximately −70° C., and then extracted and analyzed to evaluate long term stability in human plasma. Two levels of extracted QC samples (Low QC and High QC) were re-analyzed after approximately 71 hours in the autosampler at room temperature to evaluate the extract autosampler stability. Two levels of extracted QC samples (Low QC and High QC) were re-analyzed after approximately 8 hours in the freezer at approximately −20° C. to evaluate the extract freeze stability. Three aliquots of a dilution QC sample diluted 10-fold. Triplicate dilutions of the old stock solution (stored at approximately 4° C.) and new stock solutions prepared at intervals of two weeks and one month. Statistical calculations in the report tables were calculated from unrounded concentration values taken directly from the raw data. The concentration values were rounded for display purposes.
QC-Low and QC-High extract samples in triplicate were analyzed and then stored in a −20° C. freezer for approximately 8 hours. These QC samples were then re-analyzed to evaluate the extract freezer stability. The CV % values for the QC-Low and QC-High stability samples are 8.6% and 1.2%, respectively. To calculate the RE %, the measured mean concentration was compared to the nominal concentration. The RE % values for the QC-Low and QC-High stability samples are −6.3% and −13.0%, respectively.

[3] = assay type: physicochemical, rat; conditions: for Mean concentration, QC-Low / RE %, QC-Low / Measured concentration, QC-Low: nominal 0.60 μg/mL; for Measured concentration, QC-Low / Measured concentration, QC-High: individual replicates; for Mean concentration, QC-High / RE %, QC-High / Measured concentration, QC-High: nominal 40.0 μg/mL; for Long-term freezer stability, RE %: rat, 0.6 μg/mL
Protocol: as §1, with “rat” for “dog”, “specificity; Samples from six lots of control rat plasma fortified with internal standard for specificity;” for “specificity.”, “rat plasma;” for “dog plasma.”, “stability;” for “stability.”
QC-Low and QC-High plasma samples, which had been stored in a freezer at approximately −70° C. for one month and three months (98 days), were extracted in triplicate and analyzed. At the one month interval, the RE % was −24.1% for the QC-Low level. This may have been an anomaly since at the QC-Low level for the three month interval, the RE % was 4.1%. All CV % values and RE % values at the 98 day interval were within the acceptance criteria (≦15% and ±15% respectively). Therefore, sodium 2,2-dimethylbutyrate can be considered stable in rat plasma at approximately −70° C. for at least […].

[4] = Stock solution stability at nominal 4° C. (Example 5); assay type: physicochemical; conditions: nominal temperature of 4° C.
Protocol: (§2) In method I, the mobile phase of liquid chromatography was run on 0.1% formic acid in acetonitrile, and the elution volume was 10 ul. In method II, the mobile phase was run in 0.1% formic acid in methanol/water (98/2, volume to volume), and the elution volume was 5 ul.

[5] = Storage stability of quality control sample in human urine at −20° C.; assay type: physicochemical; conditions: storage temperature of −20° C.
Protocol: as §2

[6] = rat plasma, approximately −70° C., 1 Month Interval
[7] = rat plasma, approximately −70° C., 3 Month Interval

Stability after freeze/thaw cycles [1]: stable
Freeze/thaw cycle stability, Mean concentration ([1]; QC-High, nominal 40.0 μg/mL): 36.8 µg/mL
Freeze/thaw cycle stability, RE % (mean vs nominal) ([1]; QC-High, nominal 40.0 μg/mL): −8.1%
Freeze/thaw cycle stability, concentration found (replicate) ([1]; QC-High, nominal 40.0 μg/mL): 36.2 μg/mL (2×) and 37.9 μg/mL
Freeze/thaw cycle stability, Mean concentration ([1]; QC-Low, nominal 0.60 μg/mL): 0.612 µg/mL
Freeze/thaw cycle stability, RE % (mean vs nominal) ([1]; QC-Low, nominal 0.60 μg/mL): 1.9%
Time stable in the extract in the freezer ([2]; human plasma extract, freezer at −20° C.): at least 8 hours
Extract freezer stability, Mean concentration ([2]; 0.6 μg/mL): 0.562 µg/mL
Extract freezer stability, RE % (mean vs nominal) ([2]; 0.6 μg/mL): −6.3%
Extract freezer stability, Mean concentration ([2]; 40 μg/mL): 34.8 µg/mL
Extract freezer stability, RE % (mean vs nominal) ([2]; 40 μg/mL): −13.0%
Mean concentration, QC-Low [3, 6]: 456 ng/mL
RE %, QC-Low [3, 6]: −24.1%
Mean concentration, QC-High [3, 6]: 34700 ng/mL
RE %, QC-High [3, 6]: −13.3%
Measured concentration, QC-High [3, 6]: 35.4 µg/mL and 34.3 µg/mL and 34.4 µg/mL
Mean concentration, QC-Low [3, 7]: 620 ng/mL
RE %, QC-Low [3, 7]: 4.1%
Measured concentration, QC-Low [3, 7]: 0.663 μg/mL and 0.605 μg/mL (2×)
Mean concentration, QC-High [3, 7]: 37200 ng/mL
RE %, QC-High [3, 7]: −7.1%
Measured concentration, QC-High [3, 7]: 38.0 μg/mL (2×) and 35.5 μg/mL
Time stable in freezer ([3]; rat plasma, approximately −70° C.): at least 99 days
Long-term freezer stability, RE % ([3]; 1 month): −24.1%
Long-term freezer stability, RE % ([3]; 98 days): 4.1%
Time stock solutions are stable [4]: at least 115 days
Time quality control sample is stable [5]: at least 111 days
Compound: CCC(C)(C)C(=O)[O-].[Na+] [Sodium 2,2-Dimethylbutyrate]
Freeze/thaw cycle stability, concentration found (replicate) ([1]; QC-Low, nominal 0.60 μg/mL): 0.603 µg/mL and 0.620 µg/mL and 0.612 µg/mL
Measured concentration, QC-Low [3, 6]: 0.410 µg/mL and 0.484 µg/mL and 0.473 µg/mL
